Test results from US20230416238A1, “N-[(1,3-BENZOXAZOL-2-YL)-HETEROCYCLE]AMIDE DERIVATIVES FOR THE TREATMENT AND PROPHYLAXIS OF HEPATITIS B VIRUS INFECTION” (Hoffmann-La Roche Inc., priority 2020, published 2023).

Assays:
Assay type in all cases: cell-based
[1] = tested on: HBeAg; test: PHH HBV natural infection assay, HBeAg (alphalisa); details: Hepatitis B virus, Hepatocyte, read-out: HBeAg IC50
Outline: (§1)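 Primary human hepatocytes infected with HBV at 200 GE/cell plus 4% PEG8000 for 24 h, then sandwich-cultured 72 h in medium with 1% DMSO. Compound applied twice at 72-h intervals; supernatant HBsAg and HBeAg quantified by AlphaLISA.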

[2] = tested on: HBsAg; test: PHH HBV natural infection assay, HBsAg (alphalisa); details: Hepatitis B virus, Hepatocyte, read-out: HBsAg IC50
Outline: as §1

[3] = Cytotoxicity in PHH natural infection assay (Cell Counting Kit-8); details: HBV-infected primary human hepatocytes, CCK8
Outline: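 HBV-infected primary human hepatocytes (200 GE/cell, 4% PEG8000, 24 h), then sandwich-cultured 72 h. Cells dosed at varying concentrations for two 72-hour cycles, with medium refreshed. Cytotoxicity read by CCK-8 at end of treatment.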

Row | SMILES | IC50 [1] | IC50 [2] | CC50 at 144 h [3]
1 | Cc1cc(C(=O)NC2CC3(C2)CN(c2nc4cc(Cl)ccc4o2)C3)ccn1 [Example 45, N-[2-(5-chloro-1,3-benzoxazol-2-yl)-2-azaspiro[3.3]heptan-6-yl]-2-methyl-pyridine-4-carboxamide] | 1.3 µM | 2.73 µM | 80.1 µM
2 | CCNC(=O)NC1CC2(C1)CN(c1nc3cc(Cl)ccc3o1)C2 [Example 24, 1-[2-(5-Chloro-1,3-benzoxazol-2-yl)-2-azaspiro[3.3]heptan-6-yl]-3-ethyl-urea] | 8.31 µM | 7.29 µM | > 100 µM
3 | CCS(=O)(=O)c1cc(C(=O)NC2CC3(C2)CN(c2nc4cc(Cl)ccc4o2)C3)ccn1 [Example 53, N-[2-(5-chloro-1,3-benzoxazol-2-yl)-2-azaspiro[3.3]heptan-6-yl]-2-ethylsulfonyl-pyridine-4-carboxamide] | 0.785 µM | 1.41 µM | 93.2 µM
4 | O=C(NC1CC2(C1)CN(c1nc3cc(Cl)ccc3o1)C2)c1ccc(S(=O)(=O)CC2CC2)o1 [Example 65, N-[2-(5-chloro-1,3-benzoxazol-2-yl)-2-azaspiro[3.3]heptan-6-yl]-5-(cyclopropylmethylsulfonyl)furan-2-carboxamide] | 1.07 µM | 0.806 µM | 92.3 µM
5 | Cc1ccc(S(=O)(=O)N2CCC(CC(=O)NCC3CCN(c4nc5cc(Cl)ccc5o4)CC3)CC2)cc1 [Example 20, N-[[1-(5-chloro-1,3-benzoxazol-2-yl)-4-piperidyl]methyl]-2-[1-(p-tolylsulfonyl)-4-piperidyl]acetamide] | 4.05 µM | 3.88 µM | > 10 µM
6 | CS(=O)(=O)N1CCC(C(=O)NCC2CCN(c3nc4cc(Cl)ccc4o3)CC2)C1 (stereo not drawn) [Example 13, N-[[1-(5-chloro-1,3-benzoxazol-2-yl)-4-piperidyl]methyl]-1-methylsulfonyl-pyrrolidine-3-carboxamide] | 8.5 µM | 9.37 µM | > 10 µM
7 | CC(C)CS(=O)(=O)c1ccc(C(=O)NC2CC3(C2)CN(c2nc4cc(Cl)ccc4o2)C3)o1 [Example 54, N-[2-(5-chloro-1,3-benzoxazol-2-yl)-2-azaspiro[3.3]heptan-6-yl]-5-isobutylsulfonyl-furan-2-carboxamide] | 0.828 µM | 1.27 µM | 84.5 µM
8 | CCOC(=O)NC1CC2(C1)CN(c1nc3cc(Cl)ccc3o1)C2 [Example 21, Ethyl N-[2-(5-chloro-1,3-benzoxazol-2-yl)-2-azaspiro[3.3]heptan-6-yl]carbamate] | 5.24 µM | 7.15 µM | > 100 µM
9 | CC(C)(C)C(=O)NC1CCC2(CC1)CCN(c1nc3cc(Cl)ccc3o1)CC2 [Example 78, N-[3-(5-chloro-1,3-benzoxazol-2-yl)-3-azaspiro[5.5]undecan-9-yl]-2,2-dimethyl-propanamide] | 1.2 µM | 1.47 µM | 57.9 µM
10 | O=C(NC1CC2(CCN(c3nc4cc(Cl)ccc4o3)C2)C1)C1CCS(=O)(=O)C1 (stereo not drawn) [Example 71, N-[6-(5-chloro-1,3-benzoxazol-2-yl)-6-azaspiro[3.4]octan-2-yl]-1,1-dioxo-thiolane-3-carboxamide] | 5.96 µM | 8.21 µM | 94.1 µM
11 | O=C(NC1CC2CN(c3nc4cc(Cl)ccc4o3)CC2C1)c1ccc(C(F)(F)F)o1 (stereo not drawn) [Example 123, N-[2-(5-chloro-1,3-benzoxazol-2-yl)-3,3a,4,5,6,6a-hexahydro-1H-cyclopenta[c]pyrrol-5-yl]-5-(trifluoromethyl)furan-2-carboxamide] | 5.47 µM | 4.81 µM | > 100 µM
12 | CC(C)(O)C(=O)NC1CC2(C1)CN(c1nc3cc(Cl)ccc3o1)C2 [Example 29, N-[2-(5-chloro-1,3-benzoxazol-2-yl)-2-azaspiro[3.3]heptan-6-yl]-2-hydroxy-2-methyl-propanamide] | 7.37 µM | 7.13 µM | > 100 µM
